Experimental findings from patent US9126941B2, “Treatment of hyperproliferative disorders with diarylhydantoin compounds” (The Regents of the University of California, priority 2005, dated 2015) are described below.

For one data set, the system named is 4AR cell line. Put plainly: Luciferase activity in the 4AR cell line. Format: cell-based. The note with it: for a given dose, 1.25 to 10 μmol.
Data set [1] concerns the target T1, AR (Homo sapiens, UniProt P10275). The data set can be described thus: cell-based. It counts as cell-based. The method, then:
It is well established that PSA levels are indicators of AR activities in prostate cancer. […] The LNCaP-AR cells are a line of lymph node carcinoma of prostate cells transduced with a plasmid that makes express androgen receptors. […] After four days incubation, secreted PSA levels were assayed using PSA ELISA kits (American Qualex, San Clemente, Calif.)

A further data set relates to 1AR cell line. Put plainly: Luciferase activity in the 1AR cell line. Format: cell-based. The following applies: for a given dose.
Data set [2] deals with T1, AR. The data set can be described thus: cell-based. Format: cell-based. On the procedure: The compounds were subjected to tests using an artificial AR response reporter system in a hormone refractory prostate cancer cell line. […] After two days of incubation, reporter activities were assayed.
The source holds these as a separate data set.

Data set [3] in a line: Pharmacokinetics in FVB mice, drug concentration by HPLC. On the procedure:
Mice were divided into groups of three for each time points. Two mice were not treated with drug and two other mice were treated with vehicle solution. […]
The drug was dissolved in a mixture 1:5:14 of DMSO:PEG400:H20. (Vehicle solution) and was administered into mice through the tail vein. The animals are warmed under a heat lamp for approximately 20 minutes prior to treatment to dilate their tail vein. […] After drug administration, the animals were euthanized via CO2 inhalation at different timepoints: […], […], 2 h, 6 h, 16 h. Animals were immediately bleed after exposure to CO2 via cardiac puncture (1 ml BD syringe+27 G ⅝ needle).
The samples for HPLC analysis were prepared according to the following procedure: • Blood cells were separated from serum by centrifugation. • To 400 μl of serum were added 80 μl of a 10 μM solution of an internal standard and 520 μl of acetonitrile. Precipitation occurred. • The mixture was vortexed for 3 minutes and then placed under ultrasound for 30 minutes. • The solid particles were filtered off or were separated by centrifugation. • The filtrate was dried under an argon flow to dryness.

For data set [4], the system named is hormone refractory LAPC4 xenograft. The data set can be described thus: Hormone refractory LAPC4 xenograft model. It counts as in vivo, mice. The following applies: 1 mg per kg orally once daily, 17 days. On the procedure:
FIG. 9. […] (A), tumor size was measured by caliber. (B), the tumors were taken out from the mice after 17 days of treatment, tumor lysate was extracted, and PSA level in tissue lysate was determined by ELISA.
This model was established from passaging of hormone sensitive prostate cancer in castrated mice, which mimics the clinical progression of prostate cancer (2).

Data set [5] concerns AR-overexpressed LNCaP xenograft tumors. The data set can be described thus: AR-overexpressed LNCaP xenograft model in castrated male SCID mice, oral once daily. It counts as in vivo. The following applies: 44 days. On the procedure: FIG. 7. […] Mice with established LN-AR xenograft tumors were randomized and treated with indicated compounds orally once daily. Tumor size was measured by caliber.
FIG. 8. […] The tumors were taken out from the mice after 44 days of treatment, tumor lysate was extracted, and PSA level in tissue lysate was determined by ELISA.
First we examined this compound on xenograft tumors established from AR-overexpressed LNCaP cells. The engineered cells in Matrigel (Collaborative Biomedical) were injected subcutaneously into the flanks of the castrated male SCID mice. Tumor size was measured weekly in three dimensions using calipers. After xenograft tumors established (tumor size reached at least 40 mm^3), mice with tumors were randomized and treated with different doses of compounds orally once daily.

Another data set has as its system SkBr3. Put plainly: Growth effect on SkBr3 cells. It counts as cell-based. The note with it: breast cancer cells.
A further data set concerns 3T3. Put plainly: Growth effect on 3T3 fibroblasts. Format: cell-based. The following applies: normal mouse fibroblast cell line.
Another data set deals with DU-145 cells. The data set can be described thus: MTS growth assay, DU-145 cells. It counts as cell-based. The following applies: prostate cancer cell line lacking AR expression.
The target of data set [6] is T1, AR. The data set can be described thus: cell-based. From the text:
Table 2 lists the agonistic activities of different compounds.

Another data set relates to MCF7. Put plainly: Growth effect on MCF7 cells. It counts as cell-based. The note with it: breast cancer cells.
In data set [7] the target is glucocorticoid receptor (GR) (Homo sapiens (Human), UniProt P04150). The data set can be described thus: GR response reporter in LNCaP cells over expressing glucocorticoid receptor. It counts as cell-based. The note with it: reporter induced by dexamethasone.
glucocorticoid receptor (GR), sequence (P04150 whole entry, species assumed): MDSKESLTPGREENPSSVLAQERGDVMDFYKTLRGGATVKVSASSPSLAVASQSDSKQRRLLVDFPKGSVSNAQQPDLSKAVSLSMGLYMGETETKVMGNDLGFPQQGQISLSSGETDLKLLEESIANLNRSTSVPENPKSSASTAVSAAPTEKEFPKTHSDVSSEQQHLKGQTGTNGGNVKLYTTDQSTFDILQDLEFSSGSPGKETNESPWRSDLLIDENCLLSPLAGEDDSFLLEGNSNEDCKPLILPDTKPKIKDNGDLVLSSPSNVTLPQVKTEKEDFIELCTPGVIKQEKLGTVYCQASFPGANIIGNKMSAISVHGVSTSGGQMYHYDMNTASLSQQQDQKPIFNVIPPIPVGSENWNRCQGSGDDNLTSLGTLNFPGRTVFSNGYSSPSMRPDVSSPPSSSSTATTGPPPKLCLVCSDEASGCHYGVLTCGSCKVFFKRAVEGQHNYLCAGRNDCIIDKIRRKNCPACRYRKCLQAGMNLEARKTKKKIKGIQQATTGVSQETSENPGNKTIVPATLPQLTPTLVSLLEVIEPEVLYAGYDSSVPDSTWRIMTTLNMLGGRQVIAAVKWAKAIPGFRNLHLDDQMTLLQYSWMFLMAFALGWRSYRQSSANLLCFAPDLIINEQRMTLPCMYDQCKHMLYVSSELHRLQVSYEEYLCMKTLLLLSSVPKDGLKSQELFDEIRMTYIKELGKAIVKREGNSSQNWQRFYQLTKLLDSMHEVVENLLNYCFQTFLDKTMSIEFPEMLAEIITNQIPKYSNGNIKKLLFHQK
The next data set concerns LNCaP cells. The data set can be described thus: MTS growth assay, hormone sensitive LNCaP cells. It counts as cell-based. The following applies: FIG. 10, MTS. On the procedure: FIG. 10. Inhibitory effect on growth of hormone sensitive prostate cancer cells. […] After 4 days of incubation, cell growth was measured by MTS assay.
In data set [8] the target is T1, AR. Put plainly: cell-based. It counts as cell-based. This is another data set of the same source.
The subject of data set [9] is LNCaP-AR xenograft tumors. The data set can be described thus: LNCaP-AR xenograft in SCID mice, tumor size and luciferase imaging (RD162). Format: in vivo. On the procedure:
FIG. 11 is a graph of tumor size. AR overexpressing LNCaP cells were injected in the flanks of castrated […] mice, subcutaneously. When tumors reached about 100 cubic mm, they were randomized into five groups. Each group had nine animals. […] The tumors were measured three-dimensionally, width, length and depth, using a caliper.
FIG. 12 depicts experimental results of tumor size. At day 18, the animals were imaged via an optical CCD camera, 3 hours after last dose of treatment. A ROI was drawn over the tumor for luciferase activity measurement in photon/second. The right panels is a representation of the ROIs measurements.
(A) The relative tumor volume as a function of time shown for each set of mice. (B) Images of each set of mice with photon emission associated with luciferase activity at day 31 shown as color contours. (C) Rate of photon emission associated with luciferase activity shown at several times for each set of mice.
All animal experiments were performed in compliance with the guidelines of the Animal Research Committee of the University of California at Los Angeles. Animals were bought from Taconic and maintained in a laminar flow tower in a defined flora colony. LNCaP-AR and LNCaP-vector cells were maintained in RPMI medium supplemented with 10% FBS. 10^6 cells in 100 μl of 1:1 Matrigel to RPMI medium were injected subcutaneously into the flanks of intact or castrated male SCID mice. Tumor size was measured weekly in three dimensions (length×width×depth) using calipers. Mice were randomized to treatment groups when tumor size reached approximately 100 mm^3. Drugs were given orally every day at 10 mg/kg and 50 mg/kg. To obtain pharmacodynamic readout, the animals were imaged via an optical CCD camera, 3 hours after last dose of the treatment. A ROI is drawn over the tumor for luciferase activity measurement in photon/second. The right panels were a representation of the ROIs measurements.

Data set [10] relates to castrated luciferase transgenic mice. Put plainly: Castrated luciferase transgenic mice with implanted testosterone pellet, urogenital tract weight and photon emission. It counts as in vivo. The following applies: 10 mg per kg per day, 14 days. The text has this:
FIG. 23 presents results of an experiment conducted with wild type nontransgenic mice (WT), castrated luciferase transgenic mice (Cast), and non-castrated luciferase transgenic mice (Intact). […] (A) Urogenital tract weight at 14 days. (B) Photon emission rate at 14 days.

The next data set relates to L1AR cell line. Put plainly: Luciferase activity of the L1AR cell line. Format: cell-based. The following applies: at a given concentration, 125 nmol to 1000 nmol.
Where [11] appears, read: 10 mg per kg per day, LN-AR (HR) in SCID mice.

Molecules are shown by their SMILES. pIC50: −log10 of the molar value. Entries after “also recorded” stand apart in the source; their conditions may differ. Where two headings read alike, the source gives them in different places.

T1 sequence (P10275 whole entry, looked up): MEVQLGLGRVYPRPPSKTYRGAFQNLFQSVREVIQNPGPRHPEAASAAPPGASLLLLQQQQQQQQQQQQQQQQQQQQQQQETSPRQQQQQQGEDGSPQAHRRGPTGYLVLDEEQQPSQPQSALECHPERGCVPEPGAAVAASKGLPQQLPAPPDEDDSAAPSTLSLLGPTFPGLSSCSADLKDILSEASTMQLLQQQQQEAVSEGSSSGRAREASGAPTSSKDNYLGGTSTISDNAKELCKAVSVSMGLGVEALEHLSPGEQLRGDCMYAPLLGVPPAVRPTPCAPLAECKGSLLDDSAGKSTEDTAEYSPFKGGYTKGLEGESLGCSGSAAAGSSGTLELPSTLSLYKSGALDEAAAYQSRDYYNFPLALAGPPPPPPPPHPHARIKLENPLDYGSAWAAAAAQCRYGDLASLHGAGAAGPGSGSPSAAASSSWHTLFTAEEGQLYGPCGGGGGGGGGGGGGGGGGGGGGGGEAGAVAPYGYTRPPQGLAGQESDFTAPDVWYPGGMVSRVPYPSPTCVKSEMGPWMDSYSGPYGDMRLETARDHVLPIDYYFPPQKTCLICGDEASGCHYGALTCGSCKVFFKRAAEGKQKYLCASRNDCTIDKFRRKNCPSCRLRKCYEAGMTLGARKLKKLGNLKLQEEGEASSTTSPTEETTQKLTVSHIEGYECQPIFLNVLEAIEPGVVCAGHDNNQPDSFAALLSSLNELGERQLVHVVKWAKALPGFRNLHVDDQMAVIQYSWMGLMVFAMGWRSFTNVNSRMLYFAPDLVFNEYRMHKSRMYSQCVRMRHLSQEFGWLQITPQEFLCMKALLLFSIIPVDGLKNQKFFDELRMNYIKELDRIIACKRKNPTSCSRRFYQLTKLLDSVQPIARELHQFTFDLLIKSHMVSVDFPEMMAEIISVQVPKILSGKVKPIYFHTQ

Consider `CC1(C)C(=O)N(c2ccc(C#N)c(C(F)(F)F)c2)C(=S)N1c1ccc(O)cc1` [RD8, 4-[3-(4-hydroxyphenyl)-4,4-dimethyl-5-oxo-2-thioxoimidazolidin-1-yl]-2-trifluoromethylbenzonitrile], for which, in the data set with 4AR cell line, the “Luciferase activity, 4AR cell line (FIG. 26)” value is given as “less than the luciferase activity upon exposure to RD9”. Further, the “PSA level, LN/AR cell line, comparison” value at AR [1] (for a given dose / concentration) was “less than the PSA level upon exposure to RD9”. Further, the “Luciferase activity, 1AR cell line” value in the data set with 1AR cell line was “less than the luciferase activity upon exposure to RD9”.

What is called pIC50 is −log10 of the IC50, conventionally taken in molar units. Lower therefore signals a high IC50. `Cc1ccc(N2C(=S)N(c3ccc(C#N)c(C(F)(F)F)c3)C(=O)C23CCC3)cc1` [RD37, 4-(8-oxo-6-thioxo-5-(4-methylphenyl)-5,7-diazaspiro[3.4]oct-7-yl)-2-trifluoromethylbenzonitrile]: the values for the pIC50 on AR [2] and against AR [1] were 6.91 and 6.89, respectively. The “IC50 compared with bicalutamide (FIG. 15)” value against AR [2] (assay not specified) is listed as “much lower than the IC50 for bicalutamide”. Moreover, the “Pharmacokinetic behavior, residence time in blood” value in data set [3] (mice) is listed as “metabolize fast”. Further, in data set [4], the “Growth of hormone refractory LAPC4 xenograft (FIG. 9a)” value was “strongly inhibited”. Also, the “PSA expression in hormone refractory LAPC4 xenograft (FIG. 9b)” value in data set [4] is “strongly inhibited”. For the same compound, in data set [5] (1 mg per kg orally once daily), the “Growth of LNCaP-AR xenograft tumors (FIG. 7a)” value is listed as “strongly inhibited growth”. Besides, the “Dose dependence of tumor growth inhibition (FIG. 7b)” value in data set [5] (0.1, 1 or 10 mg per kg) was “dose-dependent”. The “PSA expression in xenograft tumors (FIG. 8)” value in [5] (0.1, 1 or 10 mg per kg, tumor lysate ELISA) is “inhibited PSA expression”. For the same compound, the “Rank order, most active to least active, relative PSA level (FIG. 4)” value on AR [1] (500 nM) is recorded as “RD138>RD131>RD37>RD133>RD134>RD137>RD138>RD135>bicalutamide”. In addition, at AR [1] (at concentrations of 1000 nM), the “Decrease in PSA level of LNCaP-AR cells, comparison (FIG. 4)” value is “greater decrease in PSA level of LNCaP-AR cells than RD133, RD134, and RD138”. The “Growth effect on SkBr3” value in the data set with SkBr3 is on record as “no growth effect”. In the data set with 3T3, the “Growth effect on 3T3” value is recorded as “no growth effect”. Moreover, the “Growth inhibitory effect on DU-145 cells” value in the data set on DU-145 cells is “no growth inhibitory effect”. Further, the “Agonistic activity on AR, reporter” value on AR [6] (LN-AR, absence of R1881) is recorded as “no agonistic activity”. The fold induction at 0.1 µM on AR [6] (read-out: Fold induction of AR response reporter, 0.1 μM) worked out at 0.87; on AR [8] (LNCaP, read-out: Fold induction of endogenous PSA, 0.1 μM), 1.25. Besides, the fold induction at 1 µM on AR [6] (read-out: Fold induction of AR response reporter, 1 μM) is 1.19; at AR [8] (LNCaP, read-out: Fold induction of endogenous PSA, 1 μM), 1.2. For the same compound, the fold induction at 10 µM came out at 0.89 on AR [6] (read-out: Fold induction of AR response reporter, 10 μM) and 1.15 at AR [8] (LNCaP, read-out: Fold induction of endogenous PSA, 10 μM). Moreover, the “Growth effect on MCF7” value with MCF7 is listed as “no growth effect”. In addition, the “Effect on GR response reporter” value in [7] is “no effect on GR”. In addition, the “Potency relative to bicalutamide on hormone sensitive prostate cancer cells” value in the data set on LNCaP cells was found to be 10 fold. Besides, at AR [8] (AR over expressed LNCaP, absence of R1881), the “Agonistic activity, secreted PSA” value is on record as “no agonistic activities”.

Consider `CNC(=O)c1ccc(N2C(=S)N(c3ccc(C#N)c(C(F)(F)F)c3)C(=O)C23CCC3)cc1F` [RD162, N-methyl-4-[7-(4-cyano-3-trifluoromethylphenyl)-8-oxo-6-thioxo-5,7-diaza-spiro[3.4]oct-5-yl]-2-fluorobenzamide], for which the “Tumor volume, 1 mg per kg body weight per day (FIG. 18)” value in data set [9] (1 mg per kg per day) is given as “the rate of tumor increase decreased”. Moreover, in data set [9] (10 mg per kg per day), the “Tumor volume, 10 mg per kg body weight per day (FIG. 18)” value is “tumor size decreased with time”. Moreover, in [9] (setting [11]), the “Photon emission associated with luciferase activity (FIG. 20)” value is on record as “decrease in photon emission” and the “Tumor size (FIG. 20)” value is reported as “decrease or stabilization of tumor size”. The “Photon emission associated with luciferase activity (FIG. 19)” value in data set [9] (10 mg per kg per day, day 17 relative to day 0) was “decreased”. The “Tumor growth / tumor volume over time (FIG. 11)” value in data set [9] (10 or 50 mg/kg orally every day, 18 days) is “effective to prevent tumor growth and even to cause tumor shrinkage; also recorded: tumors decreased in size”. Besides, the “Photon emission associated with luciferase activity (FIG. 12)” value in data set [9] (day 18, 3 hours after last dose) was “decreased”. Also, in data set [10], the “Photon emission associated with luciferase activity (FIG. 23)” value is reported as “decrease” and the “Urogenital tract weight (FIG. 23)” value is “decrease”. In addition, the “Luciferase activity in LNCaP-AR cells (FIG. 3)” value at AR [2] is “acted to reduce luciferase activity”. In addition, the “Css, 10 mg/kg [μM]” value in data set [3] (steady-state concentration in mice plasma, 10 mg/kg) was determined as 9.9 µM. Moreover, the “Css, 25 mg/kg [μM]” value in data set [3] (steady-state concentration in mice plasma, 25 mg/kg) amounted to 10.7 µM. Also, the “Css, 50 mg/kg [μM]” value in [3] (steady-state concentration in mice plasma, 50 mg/kg) amounted to 10.2 µM. Further, the “PSA levels of LN-AR cells (FIG. 21)” value at AR [1] (doses of 100, 200, 500 and 1000 nM) is “decreased”. The “PSA levels of LN-AR cells (FIG. 14)” value at AR [1] (various doses) was “PSA levels decreased”. Besides, the “Luciferase activity, L1AR cell line (FIG. 24)” value in the data set with L1AR cell line was “less than the luciferase activity upon exposure to RD149”.
